This series in a line: Mouse brain uptake assay (pharmacokinetics and brain penetration after IV administration). It counts as in vivo, Male CD1 Mice. To be noted: male, 3 mg/kg IV; for Kp / Kp uu: CD1, brain and plasma; for Kp / Kp uu / clearance / half-life: mouse; for Kp uu: read-out: Kp, uu (unbound brain/unbound plasma drug concentration ratio); for clearance / half-life: CD1, plasma; for clearance: read-out: Cl (Clearance) (converted); for half-life: read-out: t½ (half life) (converted); for AUC(0-t): CD1. The procedure:
Example 15: Pharmacokinetics and Brain Penetration Experiment to Determine Brain and Plasma Concentrations of Compounds after IV Administration to Male CD1 Mice or Male SD Rats
The study design (9 animals) consisted of administrating the drug (IV: 3 mg/kg (5 mL/kg) via tail vein injection) and collecting samples at terminal bleeding for plasma and brain at 0.083, 0.5 and 1 h. The blood collection was performed as follows: the animal was restrained manually and approximately 150 μL blood/time point was collected into a dipotassium EDTA tube via retro orbital puncture under anesthesia with isoflurane. The blood sample was put on ice and centrifuged to obtain a plasma sample (2000 g, 5 min under 4° C.) within 15 minutes. The brain collection was performed as follows: a mid-line incision was made in the animal's scalp and the skin was retracted. Using small bone cutters and rongeurs, the skull overlying the brain was removed. The brain was removed using a spatula and the brain rinsed with cold saline. The brain was placed in screw-top tubes, and the tubes were stored at −70° C. until analysis. The IV dosing solution was prepared in 50 mM citrate buffer (pH 4.0) at 0.6 mg/mL.
Plasma Sample Preparation:
An aliquot of 30 μL sample was added to […] containing 50 ng/mL IS (Dexamethasone). The mixture was vortexed for 5 min and centrifuged at 14,000 rpm for 5 min. An aliquot of 5 μL supernatant was injected for LC-MS/MS analysis.
Brain Sample Preparation:
An aliquot of 30 μL brain homogenate (brain:PBS=1:3, w/v) sample was added to 150 μL IS in MeCN (Dexamethasone, 50 ng/mL). The mixture was vortexed for 5 min and centrifuged at 14,000 rpm for 5 min. An aliquot of 5 μL supernatant was injected for LC-MS/MS analysis.
The sample analysis was performed on LCMS/MS-003 (API4000, triple quadruple) under the following conditions: positive ion, ESI, MRM detection using dexamethasone as internal standard. HPLC conditions: mobile phase A: H2O (0.025% formic acid (FA) with 1 mM NH4OAc); mobile phase B: MeOH (0.025% FA with 1 mM NH4OAc) on Waters X-Bridge C18 (2.1×50 mm, 2.5 μm) column at 60° C.
A similar experiment was performed with 4 time points taken from 0-24 h.

The mark [1] stands for this setting: 0-1 h, 3 time points, read-out: Kp (brain/plasma drug concentration ratio, AUC last(b)/AUC last(p)).
[2] abbreviates: mouse brain, time zero to 1 hr, 3 time points, read-out: AUClast (b) (area under the brain drug concentration-time curve).
Setting [3] is: mouse plasma, time zero to 1 hr, 3 time points, read-out: AUClast (p) (area under the plasma drug concentration-time curve).
The mark [4] stands for this setting: 0-24 h, 4 time points, read-out: Kp (brain/plasma drug concentration ratio).
The mark [5] stands for this setting: mouse brain, 0-24 h, 4 time points, read-out: AUClast (b) (area under the brain drug concentration-time curve).
Where [6] appears, read: mouse plasma, 0-24 h, 4 time points, read-out: AUClast (p) (area under the plasma drug concentration-time curve).

Read-outs that look alike come from different tables or passages of the source.

In general, clearance refers to the volume of plasma or blood freed of the substance per unit of time. Broadly, the half-life is how long it takes for the measured level to halve.

In the case of `CN1CCN(c2cccc3[nH]c(CN4CCCC4c4ncccc4Cl)nc23)CC1` (stereo not drawn) [Compound I-26], the Kp under setting [1] was determined as 1.86. In addition, where the note is “0-1 h, 3 time points”, the Kp uu was found to be 1.11, the clearance was 140 mL/min/kg and the half-life was 0.269 h. Besides, the AUC(0-t) under setting [2] came to 742 ng·h/mL. Further, the AUC(0-t) under setting [3] came out at 400 ng·h/mL.

Consider `Cc1cccnc1C1CCCN1Cc1cn2c(N3CCN(C)C4(CC4)C3)cccc2n1` (stereo not drawn) [Compound I-29], for which, under setting [4], the Kp turned out to be 0.53. Also, where the note is “0-24 h, 4 time points”, the Kp uu came out at 0.07, the clearance is 66.8 mL/min/kg and the half-life is 4.29 h. In addition, the AUC(0-t) under setting [5] was determined as 394 ng·h/mL. Moreover, the AUC(0-t) under setting [6] stood at 737 ng·h/mL.

In the case of `Cc1cccnc1C1CCCN1Cc1nc2cccc(N3CCN(C4CC4)CC3)c2[nH]1` (stereo not drawn) [Compound I-31], under setting [4], the Kp was 37.2. Also, where the note is “0-24 h, 4 time points”, the Kp uu stood at 5.95, the clearance was 235 mL/min/kg and the half-life is 0.275 h. For the same molecule, the AUC(0-t) under setting [5] is 7260 ng·h/mL. The AUC(0-t) under setting [6] amounted to 195 ng·h/mL.

On to `CN1CCN(c2c(CN3CCCC3c3ccccn3)nc3ccccn23)CC1` (stereo not drawn) [Compound I-41], for which the Kp under setting [1] came out at 0.77. Moreover, under “0-1 h, 3 time points”, the Kp uu worked out at 0.22, the clearance is 33.2 mL/min/kg and the half-life is 5.33 h. Moreover, the AUC(0-t) under setting [2] turned out to be 210 ng·h/mL. The AUC(0-t) under setting [3] came to 271 ng·h/mL.

Take `CN1CCN(c2c(CN3CCCC3c3ccccn3)nc3ccc(F)cn23)CC1` (stereo not drawn) [Compound I-63]: under setting [1], the Kp turned out to be 1.21. Under “0-1 h, 3 time points”, the Kp uu is 0.48, the clearance is 25.5 mL/min/kg and the half-life was 3.87 h. Under setting [2], the AUC(0-t) was found to be 518 ng·h/mL. In addition, under setting [3], the AUC(0-t) worked out at 427 ng·h/mL.

For the molecule `CN1CCN(c2c(CN3CCCC3c3nccs3)nc3ccccn23)CC1` (stereo not drawn) [Compound I-70], the Kp under setting [1] was determined as 1.41. In addition, for the setting “0-1 h, 3 time points”, the Kp uu was determined as 1.99, the clearance is 25 mL/min/kg and the half-life is 3.64 h. In addition, under setting [2], the AUC(0-t) stood at 736 ng·h/mL. For the same molecule, the AUC(0-t) under setting [3] came to 523 ng·h/mL.

These data come from US11332470B2, “CXCR4 inhibitors and uses thereof” (X4 Pharmaceuticals, Inc., priority 2016, dated 2022).
